Experiments:
[1] = tested on: Morningglory, Ivyleaf, Ipomoea hederacea; test: Preemergence herbicidal evaluation, IPOHE; type: in vivo, (L.) Jacq.; conditions: 0.2500 kg/ha
Text: Results of herbicide evaluation are expressed on a rating scale (0-9). The scale is based upon a visual observation of plant stand, vigor, malformation, size, chlorosis and overall plant appearance as compared with a control.
The preemergence herbicidal activity of the test compounds of the present invention is exemplified by the following tests in which the seeds of a variety of monocotyledonous and dicotyledonous plants are separately mixed with potting soil and planted on top of approximately one inch of soil in separate pint cups. After planting, the cups are sprayed with the selected aqueous acetone solution containing test compound in sufficient quantity to provide the equivalent of about 0.0156 to 0.500 kg per hectare of test compound per cup. The treated cups are then placed on greenhouse benches, watered and cared for in accordance with conventional greenhouse procedures. From four to five weeks after treatment, the tests are terminated and each cup is examined and rated according to the rating system provided in Example 185.
The compounds evaluated are reported by compound number given in Example 185.

[2] = tested on: Morningglory, Ivyleaf, Ipomoea hederacea; test: Postemergence herbicidal evaluation, IPOHE; type: in vivo, (L.) Jacq.; conditions: 0.0630 kg/ha
How it was run: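 Greenhouse postemergence test. Seedlings about two weeks old sprayed (40 psi) with compound in 50/50 acetone/water, 0.5% TWEEN 20, at rates near 0.0157–0.500 kg/ha; rated 0–9 by eye at 4–5 weeks.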

Row | SMILES | herbicide rating (0-9) [1] | herbicide rating (0-9) [2]
1 | COc1ccc(C)cc1-c1nsc2ccc(-n3c(=O)cc(C(F)(F)F)n(C)c3=O)cc12 [Compound 1, 3-[3-(6-Methoxy-m-tolyl)-1,2-benzisothiazol-5-yl]-1-methyl-6-(trifluoromethyl)-2,4(1H,3H)-pyrimidinedione] | 8.0 | 9.0
2 | COC(=O)COc1ccc(C)cc1-c1nsc2ccc(-n3c(=O)cc(C(F)(F)F)n(C)c3=O)cc12 [Compound 2, Methyl {{2-{5-[3,6-dihydro-3-methyl-4-(trifluoromethyl) -2,6-dioxo-1(2H)-pyrimidinyl]-1,2-benzisothiazol-3-yl]-p-tolyl}oxy}acetate] | 9.0 | 9.0
